Experimental data reported in patent US9212161B2, “Chiral synthesis of pyrrolidine core compounds en route to neuronal nitric oxide synthase inhibitors” (Northwestern University, priority 2010, dated 2015).

System: rabbit fetuses
Assay: animal tests, rabbit fetuses under hypoxic conditions
Type: in vivo

Cc1cc(N)nc(C[C@@H]2CNC[C@@H]2OCCNCCc2cccc(F)c2)c1 [Compound 1]
neurological damage to rabbit fetuses: remarkable reduction in neurological damage
